In the test the test system is CD8F1 mice, subcutaneous mammary adenocarcinoma, T/C%. Nature of the test: NCI In Vivo Anticancer Drug Screen. Data for tumor model Mammary Adenocarcinoma CD8F1 (subcutaneous) in CD8F1. The settings on record: higher = larger tumour. An outline of the steps:
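Antitumor activity is assessed in transplantable-tumor mice by comparing the treated group with a vehicle-treated control group. Survival or tumor size serves as the measure, reported as T divided by C.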

Where [1] appears, read: endpoint: median tumor weight change, dose: 125.0 mg/kg/injection, schedule: Q01DX001 (ip), vehicle: saline with Tween-80.
The mark [2] stands for this setting: endpoint: median tumor weight change, dose: 500.0 mg/kg/injection, schedule: Q01DX001 (ip), vehicle: saline with Tween-80.
Where [3] appears, read: endpoint: median tumor weight (est.), dose: 16.0 mg/kg/injection, schedule: Q07DX005 (ip), vehicle: Klucel (hydroxypropylcellulose) (HPC).

Where “and” joins values, the source holds several entries; their conditions need not be identical. Identical values can stand only once. Records with an inconclusive call do not appear.

On to `CC(=O)CC(c1ccccc1)c1c(O)c2ccccc2oc1=O` (stereo not drawn), for which the T/C by setting is: (endpoint: median tumor weight change, dose: 0.01 mg/kg/injection, schedule: Q01DX001 (ip), vehicle: Klucel (hydroxypropylcellulose) (HPC)) 183 % of control; (endpoint: median tumor weight change, dose: 0.02 mg/kg/injection, schedule: Q01DX001 (ip), vehicle: Klucel (hydroxypropylcellulose) (HPC)) 157 % of control; (endpoint: median tumor weight change, dose: 0.05 mg/kg/injection, schedule: Q01DX001 (ip), vehicle: Klucel (hydroxypropylcellulose) (HPC)) 196 % of control; (endpoint: median tumor weight change, dose: 0.1 mg/kg/injection, schedule: Q01DX001 (ip), vehicle: Klucel (hydroxypropylcellulose) (HPC)) 203 % of control; (endpoint: median tumor weight change, dose: 0.2 mg/kg/injection, schedule: Q01DX001 (ip), vehicle: Klucel (hydroxypropylcellulose) (HPC)) 192 % of control.

As to `CCCCCC[C@@H](O)C/C=C\CCCCCCCC(=O)OCCO`, the T/C was 96 % of control (endpoint: median tumor weight change, dose: 125.0 mg/kg/injection, schedule: Q01DX001 (ip), vehicle: saline); 91 % of control (endpoint: median tumor weight change, dose: 250.0 mg/kg/injection, schedule: Q01DX001 (ip), vehicle: saline); 98 % of control (endpoint: median tumor weight change, dose: 500.0 mg/kg/injection, schedule: Q01DX001 (ip), vehicle: saline); 103 % of control (endpoint: median tumor weight change, dose: 1000.0 mg/kg/injection, schedule: Q01DX001 (ip), vehicle: saline); 95 % of control (endpoint: median tumor weight change, dose: 2000.0 mg/kg/injection, schedule: Q01DX001 (ip), vehicle: saline).

For `Nc1ccc(S(=O)(=O)Nc2cnc3c(Cl)cccc3n2)cc1`, the T/C reads like this: (endpoint: median tumor weight change, dose: 125.0 mg/kg/injection, schedule: Q01DX001 (ip), vehicle: DMSO) 96 % of control; (endpoint: median tumor weight change, dose: 500.0 mg/kg/injection, schedule: Q01DX001 (ip), vehicle: DMSO) 102 % of control and 121 % of control; (endpoint: median tumor weight change, dose: 2000.0 mg/kg/injection, schedule: Q01DX001 (ip), vehicle: DMSO) 102 % of control.

Turning to `O=C(NO)c1cc(O)c(O)c(O)c1`, the T/C is, setting by setting: (endpoint: median tumor weight change, dose: 300.0 mg/kg/injection, schedule: Q01DX001 (ip), vehicle: water) 124 % of control; (endpoint: median tumor weight change, dose: 600.0 mg/kg/injection, schedule: Q01DX001 (ip), vehicle: water) 78 % of control.

Regarding `Oc1ccc(O)cc1`, the T/C by setting is: (endpoint: median tumor weight (est.), dose: 12.5 mg/kg/injection, schedule: Q07DX004 (ip), vehicle: saline) 36 % of control; (endpoint: median tumor weight (est.), dose: 25.0 mg/kg/injection, schedule: Q07DX004 (ip), vehicle: saline) 76 % of control; (endpoint: median tumor weight (est.), dose: 50.0 mg/kg/injection, schedule: Q07DX004 (ip), vehicle: saline) 68 % of control; (endpoint: median tumor weight (est.), dose: 100.0 mg/kg/injection, schedule: Q07DX004 (ip), vehicle: saline) 57 % of control.

In the case of `CC1=CC(=Nc2ccc(N(CCCl)CCCl)cc2)C=C(C)C1=O`, the T/C is 61 % of control and 69 % of control (endpoint: median tumor weight (est.), dose: 6.25 mg/kg/injection, schedule: Q07DX005 (ip), vehicle: Klucel (hydroxypropylcellulose) (HPC)); 32 % of control and 44 % of control (endpoint: median tumor weight (est.), dose: 50.0 mg/kg/injection, schedule: Q07DX005 (ip), vehicle: Klucel (hydroxypropylcellulose) (HPC)); 45 % of control (endpoint: median tumor weight (est.), dose: 100.0 mg/kg/injection, schedule: Q07DX005 (ip), vehicle: Klucel (hydroxypropylcellulose) (HPC)).

Take `Cc1ccc2nc(-c3ccc4nc(-c5ccc(N=Nc6ccc(-c7nc8ccc(-c9nc%10ccc(C)c(S(=O)(=O)O)c%10s9)cc8s7)cc6)cc5)sc4c3)sc2c1S(=O)(=O)O`: the T/C was 94 % of control (endpoint: median tumor weight change, dose: 125.0 mg/kg/injection, schedule: Q01DX001 (ip), vehicle: suspension in saline) and 62 % of control (endpoint: median tumor weight change, dose: 250.0 mg/kg/injection, schedule: Q01DX001 (ip), vehicle: suspension in saline).

Turning to `ClCC[N+]12CC[N+](CCCl)(CC1)C2`, the T/C is, setting by setting: (endpoint: mean tumor weight, dose: 12.5 mg/kg/injection, schedule: Q07DX006 (ip), vehicle: water) 16 % of control; (endpoint: mean tumor weight, dose: 25.0 mg/kg/injection, schedule: Q07DX006 (ip), vehicle: water) 85 % of control; (endpoint: mean tumor weight, dose: 50.0 mg/kg/injection, schedule: Q07DX006 (ip), vehicle: water) 72 % of control; (endpoint: mean tumor weight, dose: 100.0 mg/kg/injection, schedule: Q07DX006 (ip), vehicle: water) 18 % of control; (endpoint: mean tumor weight, dose: 200.0 mg/kg/injection, schedule: Q07DX006 (ip), vehicle: water) 3 % of control; (endpoint: median tumor weight (est.), dose: 12.5 mg/kg/injection, schedule: Q07DX005 (ip), vehicle: water) 70 % of control. Also, the T/C by setting is: (endpoint: median tumor weight (est.), dose: 25.0 mg/kg/injection, schedule: Q07DX005 (ip), vehicle: water) 54 % of control; (endpoint: median tumor weight (est.), dose: 50.0 mg/kg/injection, schedule: Q07DX005 (ip), vehicle: saline) 68 % of control and 50 % of control; (endpoint: median tumor weight (est.), dose: 50.0 mg/kg/injection, schedule: Q07DX005 (ip), vehicle: water) 49 % of control; (endpoint: median tumor weight (est.), dose: 100.0 mg/kg/injection, schedule: Q07DX005 (ip), vehicle: water) 32 % of control; (endpoint: median tumor weight (est.), dose: 200.0 mg/kg/injection, schedule: Q07DX005 (ip), vehicle: saline) 20 % of control; (endpoint: median tumor weight (est.), dose: 400.0 mg/kg/injection, schedule: Q07DX005 (ip), vehicle: saline) 6 % of control.

As to `CN1C(=O)C(=Cc2ccc(O)cc2)C(=O)N(C)C1=O`, the T/C was 94 % of control under setting [1] and 165 % of control under setting [2].

Take `CN(N=O)C(=O)N[C@@H](C=O)[C@@H](O)[C@H](O)[C@H](O)CO`: the T/C by setting is: under setting [3], 90 % of control; (endpoint: median tumor weight (est.), dose: 16.0 mg/kg/injection, schedule: Q07DX005 (ip), vehicle: other) 101 % of control and 109 % of control; (endpoint: median tumor weight (est.), dose: 32.0 mg/kg/injection, schedule: Q07DX005 (ip), vehicle: Klucel (hydroxypropylcellulose) (HPC)) 98 % of control; (endpoint: median tumor weight (est.), dose: 50.0 mg/kg/injection, schedule: Q07DX005 (ip), vehicle: citric acid) 98 % of control; (endpoint: median tumor weight (est.), dose: 64.0 mg/kg/injection, schedule: Q07DX005 (ip), vehicle: Klucel (hydroxypropylcellulose) (HPC)) 95 % of control; (endpoint: median tumor weight (est.), dose: 64.0 mg/kg/injection, schedule: Q07DX005 (ip), vehicle: other) 115 % of control. Moreover, the T/C runs as follows: (endpoint: median tumor weight (est.), dose: 100.0 mg/kg/injection, schedule: Q07DX005 (ip), vehicle: citric acid) 76 % of control; (endpoint: median tumor weight (est.), dose: 128.0 mg/kg/injection, schedule: Q07DX005 (ip), vehicle: other) 87 % of control; (endpoint: median tumor weight (est.), dose: 200.0 mg/kg/injection, schedule: Q07DX005 (ip), vehicle: citric acid) 84 % of control; (endpoint: median tumor weight (est.), dose: 256.0 mg/kg/injection, schedule: Q07DX005 (ip), vehicle: other) 39 % of control; (endpoint: median tumor weight (est.), dose: 400.0 mg/kg/injection, schedule: Q07DX005 (ip), vehicle: citric acid) 48 % of control.

`Nc1ncnc2c1ncn2C1OC(CO)C(O)C1O` (stereo not drawn): the T/C runs as follows: under setting [3], 103 % of control; (endpoint: median tumor weight (est.), dose: 37.5 mg/kg/injection, schedule: Q07DX005 (ip), vehicle: saline) 47 % of control; (endpoint: median tumor weight (est.), dose: 75.0 mg/kg/injection, schedule: Q07DX005 (ip), vehicle: saline) 33 % of control; (endpoint: median tumor weight (est.), dose: 128.0 mg/kg/injection, schedule: Q07DX005 (ip), vehicle: Klucel (hydroxypropylcellulose) (HPC)) 83 % of control and 99 % of control; (endpoint: median tumor weight (est.), dose: 150.0 mg/kg/injection, schedule: Q07DX005 (ip), vehicle: saline) 47 % of control; (endpoint: median tumor weight (est.), dose: 300.0 mg/kg/injection, schedule: Q07DX005 (ip), vehicle: saline) 88 % of control. The T/C (endpoint: median tumor weight (est.), dose: 600.0 mg/kg/injection, schedule: Q07DX005 (ip), vehicle: saline) is 71 % of control and the T/C (endpoint: median tumor weight (est.), dose: 1200.0 mg/kg/injection, schedule: Q07DX005 (ip), vehicle: saline) was 60 % of control.

For `O=S(=O)(c1ccccc1)N1CN2CCN(C2)C1`, the T/C was 55 % of control and 72 % of control (endpoint: median tumor weight (est.), dose: 25.0 mg/kg/injection, schedule: Q07DX005 (ip), vehicle: saline with Tween-80); 66 % of control and 79 % of control (endpoint: median tumor weight (est.), dose: 200.0 mg/kg/injection, schedule: Q07DX005 (ip), vehicle: saline with Tween-80).

As to `O=CC(S)CO` (stereo not drawn), the T/C by setting is: (endpoint: median tumor weight (est.), dose: 12.5 mg/kg/injection, schedule: Q07DX005 (ip), vehicle: suspension in saline) 165 % of control; (endpoint: median tumor weight (est.), dose: 25.0 mg/kg/injection, schedule: Q07DX005 (ip), vehicle: suspension in saline) 231 % of control and 88 % of control; (endpoint: median tumor weight (est.), dose: 50.0 mg/kg/injection, schedule: Q07DX005 (ip), vehicle: suspension in saline) 112 % of control; (endpoint: median tumor weight (est.), dose: 200.0 mg/kg/injection, schedule: Q07DX005 (ip), vehicle: suspension in saline) 102 % of control.

As to `NCC1CCC(C(=O)O)CC1` (stereo not drawn), the T/C was 63 % of control under setting [1]; 86 % of control (endpoint: median tumor weight change, dose: 250.0 mg/kg/injection, schedule: Q01DX001 (ip), vehicle: saline with Tween-80); 36 % of control under setting [2]; 97 % of control (endpoint: median tumor weight change, dose: 1000.0 mg/kg/injection, schedule: Q01DX001 (ip), vehicle: saline with Tween-80); 62 % of control (endpoint: median tumor weight change, dose: 2000.0 mg/kg/injection, schedule: Q01DX001 (ip), vehicle: saline with Tween-80).

The record behind these values is PubChem BioAssay AID220 (DTP/NCI, 2004).
